Laboratory results published in patent US9890138B2, “Diaminopyrimidine derivatives and processes for the preparation thereof” (YUHAN CORPORATION, priority 2011, dated 2018).
pEC50: −log10 of the molar value. Structures can show the parent of a compound that is named as a salt.

Each compound was assayed against T1, human 5-HT4(a) (Homo sapiens, UniProt Q13639) (assay: Evaluation of agonistic activity in CHO-K1 cells expressing human 5-HT4(a) (GeneBlAzer HTR4-CRE-bla CHO-K1, beta-lactamase reporter)). Conditions: CHO-K1 cells stably expressing human 5-HT4(a).
T1 construct: host or cells: GeneBlAzer HTR4-CRE-bla CHO-K1 cells
T1 sequence (Q13639 1-387 isoform Q13639-2): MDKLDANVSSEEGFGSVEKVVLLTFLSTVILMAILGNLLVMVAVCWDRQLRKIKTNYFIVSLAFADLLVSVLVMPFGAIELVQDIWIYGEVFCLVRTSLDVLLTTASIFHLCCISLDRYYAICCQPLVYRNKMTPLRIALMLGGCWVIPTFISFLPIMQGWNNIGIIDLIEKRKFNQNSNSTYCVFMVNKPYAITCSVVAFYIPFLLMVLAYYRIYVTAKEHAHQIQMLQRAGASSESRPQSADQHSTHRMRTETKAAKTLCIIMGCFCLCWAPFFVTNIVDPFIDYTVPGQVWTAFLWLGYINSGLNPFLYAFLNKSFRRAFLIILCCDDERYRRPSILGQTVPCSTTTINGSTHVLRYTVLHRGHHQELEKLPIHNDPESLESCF
Format: cell-based
How it was run: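 Agonism read as CRE-driven β-lactamase activity: emission ratio 465/535 nm (excitation 410 nm) after 2 h substrate loading. Preceded by 5 h compound treatment, 8 concentrations, 1% DMSO in the added solution, of overnight-plated reporter CHO-K1 cells; EC50 by non-linear regression.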

Compared with `CCCc1cc(N2CCC[C@H]2CO)nc(Nc2ccc(Cl)c([N+](=O)[O-])c2)n1` [Example 196, (S)-{1-[2-(4-chloro-3-nitrophenylamino)-6-propylpyrimidin-4-yl]pyrrolidin-2-yl}methanol], `CCCc1cc(N2CCC[C@H]2CO)nc(Nc2ccc(F)c([N+](=O)[O-])c2)n1` [Example 208, (S)-{1-[2-(4-fluoro-3-nitrophenylamino)-6-propylpyrimidin-4-yl]pyrrolidin-2-yl}methanol] is 0.22 log units higher in pEC50: 10.00 for the first, 10.22 for the second. The second is the more potent here.

Compared with `CCCc1cc(N2CCC[C@H]2CO)nc(Nc2cccc(C(F)(F)F)c2)n1` [Example 203], `CCCc1cc(N2CCC[C@H]2CO)nc(Nc2ccc(N)c(C(F)(F)F)c2)n1` [Example 211] is 1.20 log units higher in pEC50: 9.52 for the first, 10.72 for the second. The second is the more potent here.

First: CCCc1cc(N2CCC[C@H]2CO)nc(Nc2cc(Cl)ccc2C)n1 [Example 204]
Second: CCCc1cc(N2CCC[C@H]2CO)nc(Nc2ccc(C)c(Cl)c2)n1 [Example 206]
The pEC50 of the first is 0.47 log units lower: 9.33 for the first, 9.80 for the second. The second is the more potent here.

First: CCCc1cc(N2CCC[C@H]2CO)nc(Nc2cccc([N+](=O)[O-])c2)n1 [Example 207]
Second: CCCc1cc(N2CCC[C@H]2CO)nc(Nc2ccc(N)c([N+](=O)[O-])c2)n1 [Example 212, (S)-{1-[2-(4-amino-3-nitrophenylamino)-6-propylpyrimidin-4-yl]pyrrolidin-2-yl}methanol]
The pEC50 of the first is 0.97 log units lower: 10.08 for the first, 11.05 for the second. The second is the more potent here.

`CCCc1cc(N2CCC[C@H]2CO)nc(Nc2ccc(C)c([N+](=O)[O-])c2)n1` [Example 210, (S)-{1-[2-(4-methyl-3-nitrophenylamino)-6-propylpyrimidin-4-yl]pyrrolidin-2-yl}methanol] and `CCCc1cc(N2CCC[C@H]2CO)nc(Nc2ccc(C)c(C#N)c2)n1` [Example 213] are within 0.2 log units of each other in pEC50: 10.80 for the first, 10.77 for the second.

Going from `CCCc1cc(N2CCC[C@H]2CO)nc(Nc2ccc(F)c(C#N)c2)n1` [Example 214, (S)-2-fluoro-5-{4-[2-(hydroxymethyl)pyrrolidin-1-yl]-6-propylpyrimidin-2-ylamino}benzonitrile] to `CCCc1cc(N2CCC[C@H]2CO)nc(Nc2ccc(N)c(C#N)c2)n1` [Example 215], the pEC50 rises from 10.54 to 10.74 (0.20 log units).

`CCCc1cc(N2CC[C@H](NCCN)C2)nc(Nc2cccc(C#N)c2)n1` [Example 220] and `CCCc1cc(N2CCC(NC(C)=O)C2)nc(Nc2cccc(C#N)c2)n1` (stereo not shown) [Example 294, N-{1-[2-(3-cyanophenylamino)-6-propylpyrimidin-4-yl]pyrrolidin-3-yl}acetamide] are within 0.2 log units of each other in pEC50: 10.15 for the first, 10.12 for the second.

Compared with `CCCc1cc(N2CC[C@H](NC3CCNCC3)C2)nc(Nc2cccc(C#N)c2)n1` [Example 221, (S)-3-{4-[3-(piperidin-4-ylamino)pyrrolidin-1-yl]-6-propylpyrimidin-2-ylamino}benzonitrile], `CCCCN1CCC(N[C@H]2CCN(c3cc(CCC)nc(Nc4cccc(C#N)c4)n3)C2)CC1` [Example 222] is 0.26 log units higher in pEC50: 9.83 for the first, 10.09 for the second. The second is the more potent here.

First: CCCCc1cc(N2CC[C@H](NC(C)=O)C2)nc(Nc2cccc(C#N)c2)n1 [Example 223]
Second: CCCCc1cc(N2CC[C@H](NC)C2)nc(Nc2cccc(C#N)c2)n1 [Example 226]
The pEC50 of the first is 0.68 log units higher: 10.96 for the first, 10.28 for the second.

Going from `CCCCc1cc(N2CCC[C@H]2CO)nc(Nc2cccc(C#N)c2)n1` [Example 224] to `CCCCc1cc(N2CCC[C@H]2C)nc(Nc2cccc(C#N)c2)n1` [Example 225], the pEC50 falls from 11.37 to 10.28 (1.09 log units).

First: CCCCc1cc(N2CC[C@H](NC(C)=O)C2)nc(Nc2ccc(C)c(C#N)c2)n1 [Example 228, (S)—N-{1-[6-butyl-2-(3-cyano-4-methylphenylamino)pyrimidin-4-yl]pyrrolidin-3-yl}acetamide]
Second: CCCc1cc(N2CC[C@H](NC(C)=O)C2)nc(Nc2ccc(C)c(C#N)c2)n1 [Example 252, (S)—N-{1-[2-(3-cyano-4-methylphenylamino)-6-propylpyrimidin-4-yl]pyrrolidin-3-yl}acetamide]
The pEC50 of the first is 0.43 log units lower: 10.85 for the first, 11.28 for the second.

Going from `CCCCc1cc(N2CCC[C@H]2C)nc(Nc2ccc(C)c(C#N)c2)n1` [Example 230] to `CCCCc1cc(N2CC[C@H](N)C2)nc(Nc2ccc(C)c(C#N)c2)n1` [Example 234, (S)-5-[4-(3-aminopyrrolidin-1-yl)-6-butylpyrimidin-2-ylamino]-2-methylbenzonitrile dihydrochloride], the pEC50 rises from 10.33 to 11.92 (1.59 log units).

Compared with `CCCCc1cc(N2CC[C@H](NC)C2)nc(Nc2ccc(C)c(C#N)c2)n1` [Example 231], `CCCCc1cc(N2CC[C@H](NCC3CC3)C2)nc(Nc2ccc(C)c(C#N)c2)n1` [Example 240] is 0.43 log units higher in pEC50: 11.17 for the first, 11.60 for the second. The second is the more potent here.

First: CCCCc1cc(N2CC[C@H](NC(=O)OC(C)(C)C)C2)nc(Nc2ccc(C)c(C#N)c2)n1 [Example 232, (S)-tert-butyl 1-[6-butyl-2-(3-cyano-4-methylphenylamino)pyrimidin-4-yl]pyrrolidin-3-ylcarbamate]
Second: CCCc1cc(N2CC[C@H](NC(C)=O)C2)nc(Nc2ccc(F)c(C#N)c2)n1 [Example 251]
The pEC50 of the first is 1.11 log units lower: 9.89 for the first, 11.00 for the second. The second is the more potent here.

Going from `CCCCc1cc(N2CC[C@H](N)C2)nc(Nc2cccc(C#N)c2)n1` [Example 233, (S)-3-[4-(3-aminopyrrolidin-1-yl)-6-butylpyrimidin-2-ylamino]benzonitrile dihydrochloride] to `CCCCc1cc(N2CC[C@H](NC(C)C)C2)nc(Nc2cccc(C#N)c2)n1` [Example 235], the pEC50 rises from 10.72 to 11.64 (0.92 log units). The second is the more potent here.

Going from `CCCCc1cc(N2CC[C@H](N(CC)CC)C2)nc(Nc2cccc(C#N)c2)n1` [Example 236] to `CCCCc1cc(N2CC[C@H](N(CC)CC)C2)nc(Nc2ccc(C)c(C#N)c2)n1` [Example 239], the pEC50 rises from 9.68 to 9.94 (0.26 log units). The second is the more potent here.

Going from `CCCCc1cc(N2CC[C@H](NCC3CC3)C2)nc(Nc2cccc(C#N)c2)n1` [Example 237] to `CCCc1cc(N2CC[C@H](NC(C)=O)C2)nc(Nc2cc(N)cc(C#N)c2)n1` [Example 262], the pEC50 falls from 11.89 to 11.41 (0.48 log units). The first is the more potent here.

`CCCc1cc(N2CC[C@H](NC(C)=O)C2)nc(Nc2ccc(Cl)c([N+](=O)[O-])c2)n1` [Example 241, (S)—N-{1-[2-(4-chloro-3-nitrophenylamino)-6-propylpyrimidin-4-yl]pyrrolidin-3-yl}acetamide] and `CCCc1cc(N2CC[C@H](NC(C)=O)C2)nc(Nc2ccc(F)c([N+](=O)[O-])c2)n1` [Example 248, (S)—N-{1-[2-(4-fluoro-3-nitrophenylamino)-6-propylpyrimidin-4-yl]pyrrolidin-3-yl}acetamide] are within 0.2 log units of each other in pEC50: 10.92 for the first, 10.80 for the second.

Going from `CCCc1cc(N2CC[C@H](NC(C)=O)C2)nc(Nc2cccc(SC)c2)n1` [Example 242] to `CCCc1cc(N2CC[C@H](NC(C)=O)C2)nc(Nc2cccc([N+](=O)[O-])c2)n1` [Example 247], the pEC50 rises from 10.24 to 10.92 (0.68 log units).

Going from `CCCc1cc(N2CC[C@H](NC(C)=O)C2)nc(Nc2ccc3cc[nH]c3c2)n1` [Example 243] to `CCCc1cc(N2CC[C@H](NC(C)=O)C2)nc(Nc2ccc(C)c(Cl)c2)n1` [Example 246], the pEC50 falls from 10.96 to 10.40 (0.56 log units).

Compared with `CCCc1cc(N2CC[C@H](NC(C)=O)C2)nc(Nc2cccc(C(F)(F)F)c2)n1` [Example 244], `CCCc1cc(N2CC[C@H](NC(C)=O)C2)nc(Nc2ccc(F)c(C(F)(F)F)c2)n1` [Example 253] is 0.30 log units higher in pEC50: 10.55 for the first, 10.85 for the second.

Compared with `CCCc1cc(N2CC[C@H](NC(C)=O)C2)nc(Nc2ccc3c(C)cc(=O)oc3c2)n1` [Example 245], `CCCc1cc(N2CC[C@H](NC(C)=O)C2)nc(Nc2ccc(C)c(O)c2)n1` [Example 274] is 0.22 log units lower in pEC50: 10.28 for the first, 10.06 for the second.

`CCCc1cc(N2CC[C@H](NC(C)=O)C2)nc(Nc2ccc(C)c([N+](=O)[O-])c2)n1` [Example 249, (S)—N-{1-[2-(4-methyl-3-nitrophenylamino)-6-propylpyrimidin-4-yl]pyrrolidin-3-yl}acetamide] and `CCCc1cc(N2CC[C@H](NC(C)=O)C2)nc(Nc2ccc(N)c([N+](=O)[O-])c2)n1` [Example 254, (S)—N-{1-[2-(4-amino-3-nitrophenylamino)-6-propylpyrimidin-4-yl]pyrrolidin-3-yl}acetamide] are within 0.2 log units of each other in pEC50: 11.74 for the first, 11.82 for the second.

First: CCCc1cc(N2CC[C@H](NC(C)=O)C2)nc(Nc2cc(Cl)ccc2C)n1 [Example 255]
Second: CCCc1cc(N2CC[C@H](NC(C)=O)C2)nc(Nc2ccc(C)c(F)c2)n1 [Example 282]
The pEC50 of the first is 0.65 log units higher: 10.64 for the first, 9.99 for the second.

`CCCc1cc(N2CC[C@H](NC(C)=O)C2)nc(Nc2ccc(N)c(C#N)c2)n1` [Example 260] and `CCCc1cc(N2CC[C@H](NC(C)=O)C2)nc(Nc2ccc(Cl)c(N)c2)n1` [Example 290] are within 0.2 log units of each other in pEC50: 10.82 for the first, 10.89 for the second.

Compared with `CCCc1cc(N2CC[C@H](NC(C)=O)C2)nc(Nc2ccc(N)c(C(F)(F)F)c2)n1` [Example 261], `CCCc1cc(N2CC[C@H](NC(C)=O)C2)nc(Nc2ccc(C)c(C(F)(F)F)c2)n1` [Example 280] is 0.56 log units lower in pEC50: 11.15 for the first, 10.59 for the second.

`CCCc1cc(N2CC[C@H](NC(C)=O)C2)nc(Nc2cc(N)cc(C(F)(F)F)c2)n1` [Example 268] and `CCCc1cc(N2CC[C@H](NC(C)=O)C2)nc(Nc2ccc(F)c(N)c2)n1` [Example 291] are within 0.2 log units of each other in pEC50: 10.96 for the first, 11.13 for the second.

Compared with `CCCc1cc(N2CC[C@H](NC(C)=O)C2)nc(Nc2ccc(N)cc2)n1` [Example 270], `CCCc1cc(N2CC[C@H](NC(C)=O)C2)nc(Nc2ccc(C)c(N)c2)n1` [Example 292, (S)—N-{1-[2-(3-amino-4-methylphenylamino)-6-propylpyrimidin-4-yl]pyrrolidin-3-yl}acetamide] is 0.73 log units higher in pEC50: 9.69 for the first, 10.42 for the second. The second is the more potent here.

Going from `CCCc1cc(N2CC[C@H](NC(C)=O)C2)nc(Nc2ccc(C)c(OC)c2)n1` [Example 279] to `CCCc1cc(N2CC[C@H](NC(C)=O)C2)nc(Nc2ccc(C)c(C)c2)n1` [Example 281], the pEC50 falls from 10.11 to 9.71 (0.40 log units). The first is the more potent here.

`CCCc1cc(N2CC[C@H](NC(C)=O)C2)nc(Nc2ccc(N)c([N+](=O)[O-])c2)n1` [Example 286, (S)—N-{1-[2-(4-amino-3-nitrophenylamino)-6-propylpyrimidin-4-yl]pyrrolidin-3-yl}acetamide hydrochloride] and `CCCc1cc(N2CCC(NC(C)=O)C2)nc(Nc2ccc(N)c([N+](=O)[O-])c2)n1` (stereo not shown) [Example 293] are within 0.2 log units of each other in pEC50: 11.33 for the first, 11.37 for the second.

In the case of `CCCc1cc(N2CC[C@H](NC(C)=O)C2)nc(Nc2ccc(OC)c(N)c2)n1` [Example 289], the pEC50 was 10.21.
